Source: patent US20230285405A1, “Pharmaceuticals for Treating or Preventing Nidoviruses and Picornaviruses” (priority 2020, published 2023)
Structures can show the parent of a compound that is named as a salt. Where two headings read alike, the source gives them in different places.

How the values were obtained:
OC43 = assay: Drug screening: OC43 nucleoprotein staining in infected A549-mRuby cells; type: cell-based, human beta coronavirus OC43; conditions: for activity at 10 µM: Betacoronavirus 1, OC43, 96 h
Experimental: A549-mRuby cells were seeded (3,000 cells per well) in nine 384-well plates using Multidrop combi. Cells were seeded in a final volume of 30 μl with DMEM+10% BCS. The following day, 20 μl of OC43 were added (MOI 0.3) and incubated at 33° C., 5% CO2 for 1 hour. 50 nl from the Selleck FDA-approved drug library (cat #L1300, Selleck) were added (1:1,000 dilution). Two columns (32 wells) were left uninfected and two columns were treated with DMSO and virus (no drug control). Cells were imaged using the IncuCyte S3 to measure cell numbers at day 0. Cells were incubated for 4 days at 33° C., 5% CO2 and were stained for OC43 nucleoprotein. All the following steps were performed at room temperature. Cells were fixed in 50 μl 4% PFA/PBS for 15 min, blocked with 50 μl 10% BSA+0.5% Triton X-100 in PBS for 30 minutes, stained with 50 μl anti-OC43 (cat #MAB9013, Milipore) diluted 1:2,000 in 2% BSA+0.1% Triton X-100 in PBS for 1 hour, washed with 50 μl PBS three times, stained with anti-mouse-AlexaFluor488 diluted 1:1,000 in 2% BSA+0.1% Triton X-100 in PBS for 1 hour, washed with 50 μl PBS three times and imaged on the IncuCyte S3 (day 4). The screen was performed twice.
(§1) The following parameters were extracted from the images: number of cells at day 0, number of cells at day 4 and total OC43 staining intensity at day 4. For analysis, OC43 staining intensity was normalized to the number of cells in the well and further normalized to the mean of the no drug controls, which was set to 100. […] For each plate, a drug was considered as a putative hit if it reduced OC43 staining by over 3 standard deviations from the mean of the no drug controls. Drugs were considered hits if they were not toxic and reduced OC43 staining by over 3 standard deviations in both repeats.
(§2) A library of 1,900 clinically used drugs was screened, the drugs either approved for human use or having extensive safety data in humans (Phase 2 or 3 clinical trials), for their ability to inhibit OC43 infection of the human lung epithelial cell line A549 (expressing an H2B-mRuby nuclear reporter). One day after plating, cells were infected at an MOI of 0.3, incubated at 33° C. for 1 hour and drugs were added to a final concentration of 10 μM. Cells were then incubated at 33° C. for 4 days, fixed and stained for the presence of the viral nucleoprotein. The cells were imaged at day 0 (following drug addition) and day 4 (after staining) to determine the drugs effect on cell growth and OC43 infection.

A549-mRuby cells = assay: Drug screening: effect on cell growth (cell number day 4 / day 0); conditions: 10 μM drug; for Growth_1: number of cells at day 4 divided by number of cells at day 0 / toxic_1: repeat #1; for Growth_2: number of cells at day 4 divided by number of cells at day 0 / toxic_2: repeat #2
Experimental: A549-mRuby cells were seeded (3,000 cells per well) in nine 384-well plates using Multidrop combi. Cells were seeded in a final volume of 30 μl with DMEM+10% BCS. The following day, 20 μl of OC43 were added (MOI 0.3) and incubated at 33° C., 5% CO2 for 1 hour. 50 nl from the Selleck FDA-approved drug library (cat #L1300, Selleck) were added (1:1,000 dilution). Two columns (32 wells) were left uninfected and two columns were treated with DMSO and virus (no drug control). Cells were imaged using the IncuCyte S3 to measure cell numbers at day 0. Cells were incubated for 4 days at 33° C., 5% CO2 and were stained for OC43 nucleoprotein. All the following steps were performed at room temperature. […] The screen was performed twice.
as §1, §2

[1] = 10 μM drug, MOI 0.3, 4 days, OC43 staining normalized to no-drug controls, mean of the two screen repeats, read-out: OC43_mean
[2] = 10 μM drug, MOI 0.3, 4 days, normalized to no-drug controls in the same plate, repeat #1, read-out: OC43_1: % staining of OC43 in screen repeat #1
[3] = 10 μM drug, MOI 0.3, 4 days, normalized to no-drug controls in the same plate, repeat #2, read-out: OC43_2: % staining of OC43 in screen repeat #2
[4] = 10 μM drug, MOI 0.3, 4 days, OC43 staining normalized to no-drug controls, mean of the two screen repeats
[5] = 10 μM drug, MOI 0.3, 4 days, normalized to no-drug controls in the same plate, repeat #1
[6] = 10 μM drug, MOI 0.3, 4 days, normalized to no-drug controls in the same plate, repeat #2

SMILES | hit_1 (OC43; 10 μM drug, repeat #1) | hit_2 (OC43; 10 μM drug, repeat #2) | activity at 10 µM (OC43; [1]) [%] | activity at 10 µM (OC43; [2]) [%] | activity at 10 µM (OC43; [3]) [%] | Growth_1: number of cells at day 4 divided by number of cells at day 0 (A549-mRuby cells) | toxic_1 (A549-mRuby cells) | Growth_2: number of cells at day 4 divided by number of cells at day 0 (A549-mRuby cells) | toxic_2 (A549-mRuby cells) | activity at 10 µM (OC43; read-out: OC43_1: % staining of OC43 in screen repeat #1) [%] | activity at 10 µM (OC43; read-out: OC43_2: % staining of OC43 in screen repeat #2) [%] | activity at 10 µM (OC43; read-out: OC43_mean) [%] | OC43_mean (OC43; [4]) [%] | OC43_1: % staining of OC43 in screen repeat #1 (OC43; [5]) [%] | OC43_2: % staining of OC43 in screen repeat #2 (OC43; [6]) [%] | OC43_1: % staining of OC43 in screen repeat #1 (OC43; 10 μM drug, MOI 0.3, 4 days, normalized to no-drug controls in the same plate, repeat #1, ditosylate monohydrate) [%] | Growth_1: number of cells at day 4 divided by number of cells at day 0 (A549-mRuby cells; ditosylate monohydrate) | Growth_2: number of cells at day 4 divided by number of cells at day 0 (A549-mRuby cells; ditosylate monohydrate)
NC(=O)C(c1ccccc1)(c1ccccc1)[C@@H]1CCN(CCc2ccc3c(c2)CCO3)C1 [Darifenacin HBr] | 1 | 1 | 24.7 | 14.6 | 34.8 | 5.2 | 0 | 3.4 | 0 |  |  |  |  |  |  |  |  | 
CCC(=O)OCC(=O)[C@@]1(OC(=O)CC)[C@@H](C)C[C@H]2[C@@H]3CCC4=CC(=O)C=C[C@]4(C)[C@@]3(Cl)[C@@H](O)C[C@@]21C [Beclomethasone dipropionate] | 1 | 1 | 33.6 | 38.3 | 29 | 3.4 | 0 | 4.6 | 0 |  |  |  |  |  |  |  |  | 
CN[C@H]1C(=O)N[C@@H]2Cc3ccc(cc3)Oc3cc4cc(c3O[C@@H]3O[C@H](C(=O)O)[C@@H](O)[C@H](O)[C@H]3NC(=O)CCCCCCCCC(C)C)Oc3ccc(cc3Cl)[C@@H](O)[C@@H]3NC(=O)[C@H](NC(=O)[C@@H]4NC(=O)[C@@H](NC2=O)c2cc(cc(O)c2Cl)Oc2cc1ccc2O)c1ccc(O)c(c1)-c1c(O[C@H]2O[C@H](CO)[C@@H](O)[C@H](O)[C@@H]2O)cc(O)cc1[C@@H](C(=O)NCCCN(C)C)NC3=O [Dalbavancin] | 1 | 1 |  |  |  | 5.8 | 0 | 6.2 | 0 | 25.7 | 39.2 | 32.5 |  |  |  |  |  | 
CC[C@H]1OC(=O)[C@H](C)[C@@H](O[C@H]2C[C@@](C)(OC)[C@@H](O)[C@H](C)O2)[C@H](C)[C@@H](O[C@@H]2O[C@H](C)C[C@H](N(C)C)[C@H]2O)[C@](C)(O)C[C@@H](C)C(=O)[C@H](C)[C@@H](O)[C@]1(C)O.N#CS [Erythromycin thiocyanate] | 1 | 1 |  |  |  | 4.1 | 0 | 4.6 | 0 |  |  |  | 58.7 | 50.6 | 66.8 |  |  | 
COCCCC/C(=N\OCCN)c1ccc(C(F)(F)F)cc1 [Fluvoxamine maleate] | 1 | 1 |  | 22.7 | 38.9 | 5.4 | 0 | 4.5 | 0 |  |  | 30.8 |  |  |  |  |  | 
N=C(N)N/N=C/c1c(Cl)cccc1Cl [Guanabenz Acetate] | 1 | 1 | 34.6 | 31.1 | 38.1 | 5.3 | 0 | 4.4 | 0 |  |  |  |  |  |  |  |  | 
CS(=O)(=O)CCNCc1ccc(-c2ccc3ncnc(Nc4ccc(OCc5cccc(F)c5)c(Cl)c4)c3c2)o1 [Lapatinib ditosylate monohydrate] | 1 | 1 | 16.6 |  | 9.5 |  | 0 |  | 0 |  |  |  |  |  |  | 23.8 | 4.2 | 4.2
CCCCOc1cc(C(=O)NCCN(CC)CC)c2ccccc2n1 [Cinchocaine] | 1 | 1 | 41.6 | 18.9 | 64.3 | 4.3 | 0 | 4.2 | 0 |  |  |  |  |  |  |  |  | 
CCC(=O)O[C@]1(C(=O)SCF)[C@H](C)C[C@H]2[C@@H]3C[C@H](F)C4=CC(=O)C=C[C@]4(C)[C@@]3(F)[C@@H](O)C[C@@]21C [Fluticasone propionate] | 1 | 1 |  |  |  | 3.8 | 0 | 4.2 | 0 |  |  |  | 48.8 | 48.4 | 49.2 |  |  | 
CN1C2CCC1CC(OC(c1ccccc1)c1ccccc1)C2.CS(=O)(=O)O (stereo not drawn) [Benztropine mesylate] | 1 | 1 | 10.1 | 7.4 | 12.8 | 4.4 | 0 | 5.1 | 0 |  |  |  |  |  |  |  |  | 
CN(C)CCCC1(c2ccc(F)cc2)OCc2cc(C#N)ccc21 (stereo not drawn) [Citalopram HBr] | 1 | 1 |  | 20.4 | 44.4 | 5.1 | 0 | 5.1 | 0 |  |  | 32.4 |  |  |  |  |  | 
